Measurements taken from patent US7528138B2, “Pyrazolo[1,5-a]pyrimidines useful as inhibitors of protein kinases” (Vertex Pharmaceuticals Incorporated, priority 2004, dated 2009).

Target: Aurora-B (Homo sapiens, UniProt Q96GD4)
Test: Aurora B (Aurora-1) Inhibition Assay, 33P incorporation
Assay type: biochemical
Conditions: enzyme inhibition data (Ki), Table 11; read-out: AurB Ki
Description: An assay buffer solution is prepared which consists of 25 mM HEPES (pH 7.5), 10 mM MgCl2, 0.1% BSA and 10% glycerol. A 22 nM Aurora-B solution, also containing 1.7 mM DTT and 1.5 mM Kemptide (LRRASLG), is prepared in assay buffer. To 22 μL of the Aurora-B solution, in a 96-well plate, is added 2 μl of a compound stock solution in DMSO and the mixture is allowed to equilibrate for 10 minutes at 25° C. The enzyme reaction is initiated by the addition of 16 μl stock [γ-^33P]-ATP solution (˜20 nCi/μL) prepared in assay buffer, to a final assay concentration of 800 μM. The reaction is stopped after 3 hours by the addition of 16 μL 500 mM phosphoric acid and the levels of ^33P incorporation into the peptide substrate is determined by the following method.
A phosphocellulose 96-well plate (Millipore, Cat no. MAPHNOB50) is pre-treated with 100 μL of a 100 mM phosphoric acid prior to the addition of the enzyme reaction mixture (40 μL). The solution is left to soak on to the phosphocellulose membrane for 30 minutes and the plate subsequently is washed four times with 200 μL of a 100 mM phosphoric acid. To each well of the dry plate is added 30 μL of Optiphase ‘SuperMix’ liquid scintillation cocktail (Perkin Elmer) prior to scintillation counting (1450 Microbeta Liquid Scintillation Counter, Wallac). Levels of non-enzyme catalysed background radioactivity are determined by adding 16 μL of the 500 mM phosphoric acid to control wells, containing all assay components (which acts to denature the enzyme), prior to the addition of the [γ-^33P]-ATP solution. Levels of enzyme catalysed ^33P incorporation are calculated by subtracting mean background counts from those measured at each inhibitor concentration. For each Ki determination 8 data points, typically covering the concentration range 0-10 μM compound, are obtained in duplicate (DMSO stocks are prepared from an initial compound stock of 10 mM with subsequent 1:2.5 serial dilutions). Ki values are calculated from initial rate data by non-linear regression using the Prism software package (Prism 3.0, Graphpad Software, San Diego, Calif.).

Aurora-B, sequence (Q96GD4 whole entry): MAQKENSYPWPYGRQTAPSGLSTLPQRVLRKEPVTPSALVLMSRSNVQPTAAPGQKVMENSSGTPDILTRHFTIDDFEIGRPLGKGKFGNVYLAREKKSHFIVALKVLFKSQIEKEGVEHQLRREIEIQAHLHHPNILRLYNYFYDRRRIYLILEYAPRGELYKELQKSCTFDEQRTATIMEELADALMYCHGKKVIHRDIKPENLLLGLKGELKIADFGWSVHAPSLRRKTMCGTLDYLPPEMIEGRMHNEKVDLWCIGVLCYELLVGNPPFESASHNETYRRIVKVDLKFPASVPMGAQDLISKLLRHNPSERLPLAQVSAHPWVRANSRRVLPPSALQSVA

Structure (SMILES)	Ki [µM]
COc1ccccc1Nc1cc(-c2c(N)nn3cc(C)cnc23)ncn1 [Compound V-274]	0.5 to 5
Cc1cnc2c(-c3cc(NC(C)C)ncn3)c(N)nn2c1 [Compound V-273]	0.5 to 5
